This note sets out measurements from patent US6737418B2, “Aryl substituted pyrazoles, imidazoles, oxazoles, thiazoles and pyrroles, and the use thereof” (Euro-Celtique S.A., priority 1999, dated 2004).

Usually ED50 stands for the midpoint of the dose-response relation. By Ki is commonly meant a dissociation constant, usually derived from enzyme kinetics or from competition with a known ligand. A high value points to a looser hold on the target.

Test [1] deals with maximal electroshock-induced seizures (MES). Nature of the test: Maximum electroshock seizure test (MES), oral administration to mice. The format is in vivo. The following applies: 30 minutes before the test, dose protecting 50% of animals; for ED50: Mus musculus, po. An excerpt: The compounds of the present invention may be tested for in vivo anticonvulsant activity after i.v., p.o. or i.p. injection using a number of anticonvulsant tests in mice, including the maximum electroshock seizure test (MES). Maximum electroshock seizures were induced in male NSA mice weighing between 15-20 g and male Sprague-Dawley rats weighing between 200-225 g by application of current (50 mA, 60 pulses/sec, 0.8 msec pulse width, 1 sec duration, D.C., mice; 99 mA, 125 pulses/sec, 0.8 msec pulse width, 2 sec duration, D.C., rats) using a Ugo Basile ECT device (Model 7801). Mice were restrained by gripping the loose skin on their dorsal surface and saline-coated corneal electrodes were held lightly against the two corneae. Rats were allowed free movement on the bench top and ear-clip electrodes were used. […] A tonic seizure was defined as a hindlimb extension in excess of 90 degrees from the plane of the body. Results were treated in a quantal manner.
The ability of 3-[4-(2,4-difluorophenoxy)phenyl]-1H-pyrazole-1-carboxamide to block maximal electroshock-induced seizures (MES) was determined as described earlier.
3-[4-(2,4-Difluorophenoxy)phenyl]-1H-pyrazole-1-carboxamide was administered p.o. to mice 30 minutes before the test procedure.
The following compounds in Table 1 were tested in MES as described for 3-[4-(2,4-difluorophenoxy)phenyl]-1H-pyrazole-1-carboxamide: […]

Test [2] concerns the target T1, hSkM1 isoform of Na+ channels (Homo sapiens, UniProt P35499).
T1 construct: expressed in transfected cells
Nature of the test: Electrophysiological Assay 1: whole-cell patch-clamp of Na+ currents in HEK-293 cells expressing hSkM1. Type of test: cell-based. The following applies: for Ki: HEK-293 cells stably expressing hSkM1, concentration that produces half maximal inhibition. Here is the method: Cell preparation: HEK-293 cells stably expressing the hSkM1 isoform of Na^+ channels (generous gift from Dr. A. L. George, Vanderbilt University Medical School) were cultured using standard techniques, as described previously (Verdoorn, T. A, et al., Neuron 4:919-928 (1990)). For electrophysiology, cells were plated onto 35 mm Petri dishes (pre-coated with poly-D-lysine) at a density of 1:40 on the day of re-seeding from confluent cultures. Our experience has been that cells are suitable for recordings for 2-3 days after plating.
Patch-clamp recordings of voltage-sensitive Na^+ currents: Whole-cell voltage-clamp recordings were made using conventional patch-clamp techniques (Hamill et al., Pfluegers Arch. 391:85-100 (1981)) with an Axopatch 200A amplifier (Axon Instruments, Foster City, Calif.). […] The recording chamber was continuously superfused with the external solution (150 mM NaCl, 5.4 mM KCl, 1.8 mM CaCl2, 1 mM MgCl2, 10 mM HEPES, 10 mM glucose, pH 7.4 (NaOH)) at a speed of about 1 mL/min. Recording pipettes were pulled from thick-walled capillaries (WPI, Sarasota, Fla.) and fire-polished. The pipette resistances ranged from 1 to 3 MΩ when the pipettes were filled with internal solution containing (in mM): 110 CsF, 10 NaCl, 5 MgCl2, 11 EGTA, 10 HEPES, pH adjusted to 7.4 with CsOH. Osmolality was set with a difference of 15-20 mmol/kg between external and internal solutions (lower inside the cell). Drugs and intervening wash-outs were applied through a linear array of flow pipes (Drummond Microcaps, 2 μL, 64-mm length). Compounds are dissolved in dimethylsulfoxide (DMSO) to make a 30 mM stock solution, which was subsequently diluted into the external solution to give final concentrations of 0.1-100 μM. At the highest (1%) concentration, DMSO inhibited the size of Na^+ current only slightly. Currents were recorded at room temperature (22-25° C.), filtered at 5 kHz with an active 8-pole Bessel filter (Frequency Devices, Haverhill, Mass.), digitized at 10-50 μs intervals, and stored using Digidata 1200 analog/digital interface with Pclamp6/Clampex software (Axon Instruments). Series resistance was cancelled typically by ˜75% when necessary. The inhibitory potency of drugs was assessed by measuring reductions in the peak amplitude of Na^+ currents induced by increasing concentrations of compounds tested. Na^+ currents were elicited by stepping membrane voltage from holding potentials over the range −100 mV to −50 mV, to a pulse potential of −10 mV. The test pulse duration was 5-10 msec, repeated at a frequency≦1 Hz. Concentration-inhibition curves were fitted with equation 1:
I/Icontrol=1/(1+([compound]/IC50)) Eq. 1
where Icontrol is the maximal Na^+ current in the absence of antagonist, [compound] is the drug concentration, and IC50 is the concentration of compound that produces half maximal inhibition.
The apparent antagonist dissociation constant (Kd) of this compound for inactivated sodium channels is ˜8 nM.
The Ki (the concentration of a compound that produces half maximal inhibition) value for 3-[4-(4-fluorophenoxy)phenyl]-1H-pyrazole-1-carboxamide and other tested compounds are presented in Table 2.
For orientation: The patch-clamp technique gives a direct electrical read-out from membranes.

T1 sequence (P35499 whole entry, canonical isoform): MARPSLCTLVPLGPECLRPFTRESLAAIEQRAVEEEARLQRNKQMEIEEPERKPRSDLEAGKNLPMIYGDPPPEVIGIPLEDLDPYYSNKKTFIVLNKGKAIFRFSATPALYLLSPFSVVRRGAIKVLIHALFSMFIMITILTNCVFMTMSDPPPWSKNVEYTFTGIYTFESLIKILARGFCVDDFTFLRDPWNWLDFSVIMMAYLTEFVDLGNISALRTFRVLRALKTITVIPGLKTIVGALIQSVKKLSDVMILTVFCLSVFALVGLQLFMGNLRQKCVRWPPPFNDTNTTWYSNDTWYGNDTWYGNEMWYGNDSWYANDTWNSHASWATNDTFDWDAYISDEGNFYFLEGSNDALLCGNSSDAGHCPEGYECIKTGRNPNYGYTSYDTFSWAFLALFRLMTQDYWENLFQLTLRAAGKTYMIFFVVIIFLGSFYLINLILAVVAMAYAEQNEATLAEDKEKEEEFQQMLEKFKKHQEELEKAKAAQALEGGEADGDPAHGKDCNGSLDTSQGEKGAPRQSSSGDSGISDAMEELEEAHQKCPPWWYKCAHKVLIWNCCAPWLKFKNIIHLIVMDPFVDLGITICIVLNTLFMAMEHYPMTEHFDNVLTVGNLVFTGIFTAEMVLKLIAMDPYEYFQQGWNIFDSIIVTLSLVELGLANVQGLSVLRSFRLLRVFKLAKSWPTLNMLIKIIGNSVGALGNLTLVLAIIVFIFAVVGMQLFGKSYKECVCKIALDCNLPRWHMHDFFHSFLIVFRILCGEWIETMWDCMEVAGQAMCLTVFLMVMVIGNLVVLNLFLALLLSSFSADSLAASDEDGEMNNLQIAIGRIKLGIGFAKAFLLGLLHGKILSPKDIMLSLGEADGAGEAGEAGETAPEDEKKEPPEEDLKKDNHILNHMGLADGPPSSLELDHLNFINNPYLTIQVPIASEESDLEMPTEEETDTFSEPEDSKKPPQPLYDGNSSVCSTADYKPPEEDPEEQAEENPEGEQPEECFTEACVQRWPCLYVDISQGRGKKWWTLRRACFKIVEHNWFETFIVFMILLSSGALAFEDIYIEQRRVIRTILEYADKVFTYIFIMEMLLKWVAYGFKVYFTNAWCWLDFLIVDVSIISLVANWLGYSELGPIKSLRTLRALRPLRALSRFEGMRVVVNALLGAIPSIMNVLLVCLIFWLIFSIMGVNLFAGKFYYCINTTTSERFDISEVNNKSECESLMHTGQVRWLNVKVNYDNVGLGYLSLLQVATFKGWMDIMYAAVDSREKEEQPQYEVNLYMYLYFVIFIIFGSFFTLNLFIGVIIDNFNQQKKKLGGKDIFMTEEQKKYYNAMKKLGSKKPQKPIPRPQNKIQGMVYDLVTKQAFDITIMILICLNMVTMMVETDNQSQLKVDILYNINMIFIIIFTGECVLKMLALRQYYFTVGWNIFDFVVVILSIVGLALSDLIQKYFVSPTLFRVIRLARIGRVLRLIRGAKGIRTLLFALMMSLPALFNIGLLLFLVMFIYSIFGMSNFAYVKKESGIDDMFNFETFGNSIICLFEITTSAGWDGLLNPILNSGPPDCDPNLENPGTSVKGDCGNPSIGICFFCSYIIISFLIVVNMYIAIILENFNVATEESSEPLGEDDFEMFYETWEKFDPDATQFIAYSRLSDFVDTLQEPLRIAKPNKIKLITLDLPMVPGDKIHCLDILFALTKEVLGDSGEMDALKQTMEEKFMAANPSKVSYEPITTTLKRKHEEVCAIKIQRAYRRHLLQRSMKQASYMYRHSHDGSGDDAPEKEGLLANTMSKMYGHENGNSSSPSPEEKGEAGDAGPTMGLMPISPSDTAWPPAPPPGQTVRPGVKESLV

In turn, `COC(=O)c1ccc(-c2ccc(Oc3ccc(F)cc3)cc2)[nH]1` [Methyl 5-[4-(4-Fluorophenoxy)phenyl]pyrrole-2-carboxylate] returned an ED50 in test [1] of 6 mg/kg. Take `Cc1nc(-c2ccc(Oc3ccc(F)cc3F)cc2)c[nH]1` [4-[4-(2,4-Difluorophenoxy)phenyl]-2-methyl]-1H-imidazole]: in test [1], the “MES p.o. ED50” value is given as 7.5 mg/kg. As for “1-[3-[4-(4-Nitrophenoxy)phenyl]-1H-pyrazolyl]ethanone”, in test [2], the Ki is 9 nM. In test [1], `CS(=O)(=O)NCCn1nccc1-c1ccc(Oc2ccc(F)cc2)cc1` [1-[2-(Methanesulfonylamino)ethyl]-5-[4-(4-fluorophenoxy)phenyl]-1H-pyrazole] came in with an ED50 of 7.5 mg/kg. Still for that read-out and setting: the figure for `Fc1ccc(Oc2ccc(-c3c[nH]cn3)cc2F)cc1` [4-[4-(4-Fluorophenoxy)-3-fluorophenyl]-1H-imidazole] is 3.2 mg/kg. `Fc1ccc(Oc2ccc(-c3cc[nH]n3)cc2)cc1` [3-[4-(4-Fluorophenoxy)phenyl]-1H-pyrazole] gave a 50% effective dose (ED50) in test [1] of 8 mg/kg. Still for that read-out and setting: with `Fc1ccc(Oc2ccc(-c3c[nH]cn3)cc2)cc1` [4-[4-(4-Fluorophenoxy)phenyl]-1H-imidazole] the figure was 4.2 mg/kg. Molecule `CC(=O)N(C)n1nccc1-c1ccc(Oc2ccc(F)cc2)cc1` [2-(N-methylacetamido)-3-[4-(4-fluorophenoxy)phenyl]-2H-pyrazole] displayed an ED50 in test [1] of 2.9 mg/kg. For the molecule `O=[N+]([O-])c1ccc(Oc2ccc(-c3cc[nH]n3)cc2)cc1` [5-[4-(4-nitrophenoxy)phenyl]-1H-pyrazole, 3-[4-(4-nitrophenoxy)phenyl]-1H-pyrazole], the inhibition constant (Ki) in test [2] is 110 nM. As to `NC(=O)c1nc(-c2ccc(Oc3ccc(F)cc3)c(F)c2)cs1` [4-[4-(4-Fluorophenoxy)-3-fluorophenyl]-thiazole-2-carboxamide], the inhibitory constant (Ki) in test [2] stood at 20 nM. Against the preceding molecule, the Ki is about 5.5-fold lower. As for `NC(=O)n1ccc(-c2ccc(Oc3ccc([N+](=O)[O-])cc3)cc2)n1` [3-[4-(4-Nitrophenoxy)phenyl]-1H-pyrazole-1-carboxamide], the ED50 in test [1] stood at 2 mg/kg. This molecule also gave a Ki in test [2] of 11 nM. With `NC(=O)n1ccc(-c2ccc(Oc3ccccc3)cc2)n1` [3-(4-phenoxyphenyl)-1H-pyrazole-1-carboxamide], in test [2], the affinity corresponds to a Ki of 15 nM. `NC(=O)n1ccc(-c2ccc(Oc3ccc(F)cc3)c(F)c2)n1` [3-[3-fluoro-4-(4-fluorophenoxy)phenyl]-1H-pyrazole-1-carboxamide] showed an ED50 in test [1] of 4.5 mg/kg. Still for that read-out and setting: the figure for `CN(C)C(=O)n1ccc(-c2ccc(Oc3ccc(F)cc3)cc2)n1` [3-[4-(4-Fluorophenoxy)phenyl]-1H-pyrazole-1-carboxylic Acid Dimethylamide] is 8.6 mg/kg.

On to `NC(=O)n1ccc(-c2ccc(Oc3ccc(F)cc3F)cc2)n1` [3-[4-(2,4-Difluorophenoxy)phenyl]-1H-pyrazole-1-carboxamide], for which the ED50 in test [1] stood at 3.5 mg/kg. In addition, the Ki in test [2] was found to be 10 nM. Take `CN1CCN(C(=O)Cn2nccc2-c2ccc(Oc3ccc(F)cc3)cc2)CC1` [2-{5-[4-(4-Fluorophenoxy)phenyl]-pyrazol-1-yl}-1-(4-methyl)piperazine-1-yl-ethanone]: the “MES p.o. ED50” value in test [1] turned out to be 10 mg/kg.

Take `NC(=O)c1ccc(-c2ccc(Oc3ccc(F)cc3)cc2)[nH]1` [5-[4-(4-Fluorophenoxy)phenyl]-pyrrole-2-carboxamide]: the 50% effective dose (ED50) in test [1] stood at 10 mg/kg. Consider `NC(=O)n1ccc(-c2ccc(Oc3ccc(F)cc3)cc2)n1` [3-[4-(4-Fluorophenoxy)phenyl]-1H-pyrazole-1-carboxamide], for which, in test [1], the median effective dose (ED50) worked out at 7 mg/kg. In test [2], this molecule returned a Ki of 8 nM. In addition, the “inhibition of voltage-gated sodium currents” value in test [2] (HEK-293 cells stably expressing hSkM1 sodium channels) was “dose-dependent inhibition”. For the same molecule, the Kd in test [2] (HEK-293 cells stably expressing hSkM1 sodium channels, read-out: apparent antagonist dissociation constant (Kd) for inactivated sodium channels) was ~8 nM. In test [2] (hSkM1, blocking effect highly sensitive to the holding voltage), the “potency towards Na+ channels in their resting states” value is “weak potency”.
